Laboratory results as given in patent publication US9394555B2, “Compositions comprising a polypeptide having cellulolytic enhancing activity and a dioxy compound and uses thereof” (priority 2010, dated 2016).

Key:
Type in all cases: biochemical
[1] = system: Thielavia terrestris GH61E polypeptide; test: Variable pH PASC conversion assay (Examples 29, 30) with Thielavia terrestris GH61E polypeptide; settings: gallic acid 0.2% w/w + Thielavia terrestris GH61E polypeptide (10 mg/g) + beta-glucosidase (10 mg/g), 72 hours, 50° C.
[2] = target: Trichoderma reesei GH61B polypeptide (Trichoderma reesei, UniProt Q7Z9M7); test: Variable pH PASC conversion assay (Examples 29, 30) with Trichoderma reesei GH61B polypeptide; settings: gallic acid 0.2% w/w + Trichoderma reesei GH61B polypeptide (10 mg/g) + beta-glucosidase (10 mg/g), 72 hours, 50° C.
Trichoderma reesei GH61B polypeptide, sequence (Q7Z9M7 20-249): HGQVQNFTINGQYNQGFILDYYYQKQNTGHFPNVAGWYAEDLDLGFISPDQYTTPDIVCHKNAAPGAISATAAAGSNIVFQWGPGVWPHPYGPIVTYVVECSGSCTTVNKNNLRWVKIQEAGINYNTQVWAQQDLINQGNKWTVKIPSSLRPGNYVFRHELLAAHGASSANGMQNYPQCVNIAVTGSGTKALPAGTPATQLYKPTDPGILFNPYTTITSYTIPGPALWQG

[3] = target: T1, T. aurantiacus GH61A polypeptide (Thermoascus aurantiacus, UniProt G3XAP7, N13Y); test: Phosphoric acid swollen cellulose (PASC) hydrolysis assay (Examples 18, 19); settings: T. aurantiacus GH61A polypeptide (20 mg/g) + A. oryzae CEL3A beta-glucosidase (20 mg/g), no gallic acid; 72 hours, 50° C.
Experimental: A 1% phosphoric acid swollen cellulose (PASC) slurry was prepared from AVICEL® PH101 using the protocol described by Zhang et al., 2006, Biomacromolecules 7: 644-648.
The 1.0% PASC slurry prepared as described in Example 17 was thoroughly resuspended by shaking, and quickly transferred to a 100 ml beaker and stirred rapidly with a magnetic stirrer. Five hundred μl aliquots of the 1.0% PASC slurry were pipetted into wells of a 2.0 ml 96-deepwell plate (Axygen, Union City, Calif., USA) using a 1000 μl micropipette with a wide aperture tip (end of tip cut off about 2 mm from the base). One hundred μl of 10 mM MnSO4-500 mM sodium acetate pH 5 were then added to each well. […]
Primary analysis of the hydrolysis reactions was performed using an AGILENT® 1100 HPLC with CHEMSTATION® software equipped with an AMINEX™ HPX-87H column. […] Sugars were detected using a refractive index detector with quantification by integration compared to purified sugar standards.
All HPLC data processing was performed using MICROSOFT EXCEL™ software. […] In this assay only glucose was measured since beta-glucosidase was at high levels in all samples but the controls. Percent conversion was calculated using Equation 1. Triplicate data points were averaged and standard deviation was calculated. […]
Data were collected and analyzed, as described in Example 18, after 72 hours of incubation at 50° C.

[4] = target: T1, T. aurantiacus GH61A polypeptide; test: Phosphoric acid swollen cellulose (PASC) conversion assay (Examples 20, 21); settings: 72 hours, 50° C.
Experimental: A 1.0% PASC slurry was prepared as described in Example 17. Ten ml of the 1.0% PASC slurry, 10 ml of H2O, and […] of dioxy compound were thoroughly mixed by shaking,
Five hundred μl aliquots of the 0.50% phosphoric acid swollen cellulose/0.05% dioxy compound slurry were pipetted into wells of a 2.0 ml 96-deepwell plate (Axygen, Union City, Calif., USA) using a 1000 μl micropipette with a wide aperture tip (end of tip cut off about 2 mm from the base). One hundred μl of 10 mM MnSO4-500 mM sodium acetate pH 5 were then added to each well. Two hundred μl of deionized water were added to each well. Enzyme mixtures were prepared and then added simultaneously to all wells in a volume of 200 μl, for a total of 1 ml in each reaction. […] All experiments reported were performed in triplicate.
Primary analysis of the hydrolysis reactions was performed using an AGILENT® 1100 HPLC with CHEMSTATION® software equipped with an AMINEX™ HPX-87H column. After approximately 4 days, the deep-well plate was removed from the incubator and chilled overnight to 4° C. The plate was then mixed well by inversion and briefly centrifuged 52×g in a SORVALL® RT7 centrifuge for 10 seconds. Samples were then mixed by pipetting, and 200 μl from each well were transferred to a MULTISCREEN® HV centrifuge filter plate assembly. The centrifuge filter plate assembly was centrifuged at 2000 rpm in a SORVALL® RT7 centrifuge for 20 minutes. […] Sugars were detected using a refractive index detector with quantification by integration compared to purified sugar standards.
All HPLC data processing was performed using MICROSOFT EXCEL™ software. […] In this assay only glucose was measured since beta-glucosidase was at high levels in all samples but the controls. Percent conversion was calculated using Equation 1. Triplicate data points were averaged and standard deviation was calculated.
The PASC assay was performed as described in Example 20.
Data were collected and analyzed, as described in Example 20, after 72 hours of incubation at 50° C.

Molecule | conversion of phosphoric acid swollen cellulose ([1]; pH 4) [%] | conversion of phosphoric acid swollen cellulose ([1]; pH 5) [%] | conversion of phosphoric acid swollen cellulose ([1]; pH 6) [%] | conversion of phosphoric acid swollen cellulose ([1]; pH 7.5) [%] | conversion of phosphoric acid swollen cellulose ([2]; pH 4) [%] | conversion of phosphoric acid swollen cellulose ([2]; pH 5) [%] | conversion of phosphoric acid swollen cellulose ([2]; pH 6) [%] | conversion of phosphoric acid swollen cellulose ([2]; pH 7.5) [%] | conversion of PASC [3] [%] | conversion of phosphoric acid swollen cellulose ([4]; T. aurantiacus GH61A polypeptide (20 mg/g) + A. oryzae CEL3A beta-glucosidase (20 mg/g), no dioxy compound) [%] | conversion of PASC ([4]; T. aurantiacus GH61A polypeptide (20 mg/g) alone) [%]
O=C(O)c1cc(O)c(O)c(O)c1 [gallic acid] | 36.3±3.2 | 41.7±3.9 | 33.7±0.2 | 23.8±3.0 | 13.6±0.2 | 15.9±0.6 | 12.7±0.4 | 3.9±1.0 | – | – | –
T. aurantiacus GH61A polypeptide: GH61A polypeptide having cellulolytic enhancing activity (SEQ ID NO: 14), recombinantly produced in Aspergillus oryzae JaL250 (protein, listed as Thermoascus aurantiacus) MSFSKIIATAGVLASASLVAGHGFVQNIVIDGKYYGGYLVNQYPYMSNPPEVIAWSTTATDLGFVDGTGYQTPDIICHRGAKPGALTAPVSPGGTVELQWTPWPDSHHGPVINYLAPCNGDCSTVDKTQLEFFKIAESGLINDDNPPGIWASDNLIAANNSWTVTIPTTIAPGNYVLRHEIIALHSAQNQDGAQNYPQCINLQVTGGGSDNPAGTLGTALYHDTDPGILINIYQKLSSYIIPGPPLYTG | – | – | – | – | – | – | – | – | 2.6±0.1 | 2.3±0.6 | 1.5±1.1
